Measurements: PubChem BioAssay AID179 (DTP/NCI, 2004)
Activity calls are given as the source filed them.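 The calls were made as follows: active = compounds giving half or more protection of infected cells from virus-caused growth loss, again on retest; inactive = the rest.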 Where a SMILES comes first, the peptide text is derived from it.

System: CEM cells HIV-1 protection, formazan growth assay
Assay: NCI AIDS Antiviral Assay
Conditions: for IC50: measured here: growth of uninfected CEM cells
How it was run: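 Screen of anti-HIV-1 activity in human CEM cells using a formazan-based growth measurement at five drug concentrations. Hits with 50% or greater protection were repeated, and confirmation required reproducible complete protection.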

SMILES | EC50 | IC50 | outcome
CN(C)CCSc1cccc(-c2cc(-c3cccc(SCCN(C)C)c3)nc(SCCN(C)C)n2)c1 | > 457 µM | 0.708 µM | 
Cc1cc(O)c2c(c1)C(=O)C(c1c(C)cc3c(c1O)C(=O)C1OC1C3=O)=CC2=O (stereo not given) | > 174 µM | 0.0933 µM | 
Nc1ncnc2c1Sc1nc(Cl)ccc1N2 | > 14.8 µM | > 14.8 µM | 
O=C1COc2cc3c(cc2N1)SCCC(=O)N3 | > 39.8 µM | > 39.8 µM | 
CC(C)CN(CC(C)C)C(=O)C(Br)C(Br)C(=O)O (stereo not given) | > 200 µM | 91.2 µM | 
Cc1cc(N=Nc2cc(S(=O)(=O)O)c(N)cc2N)ccc1N=Nc1ccc2cc(S(=O)(=O)O)cc(S(=O)(=O)O)c2c1 |  |  | inactive
C=CC1OC(CCCOC(=O)C(C)(C)C)O[C@@H]1CC (stereo not given in full) | > 200 µM | > 200 µM | 
CC(=O)C1(C(=O)C(=[N+]=[N-])S(=O)(=O)c2ccccc2)CC1 | > 851 µM | 8.32 µM | 
C/C(=C/CNc1ncnc2c1ncn2CCC(=O)O)CO | > 200 µM | > 200 µM | 
N[C@H]1CCC[C@@H](O)C1O (stereo not given in full) | > 200 µM | > 200 µM | 
CC(NC(=O)C(CO)NC(=O)C(C)NC(=O)C(C)NC(=O)C(CC(N)=O)NC(=O)CN)C(N)=O (stereo not given) (H-GNAASA-NH2; configuration not given here) |  |  | inactive
Cc1ccnc(NC(=S)Nc2ccccc2Cl)c1 | > 200 µM | > 200 µM | 
O=C1CN(Cc2ccccc2)CC(=O)N2Cc3ccccc3CN12 |  |  | inactive
c1ccc(COc2ccc(C[P+](c3ccccc3)(c3ccccc3)c3ccccc3)cc2)cc1 | > 20 µM | 0.324 µM | 
O=C(O)CC(NC(=O)OCc1ccccc1)C(=O)O (stereo not given) | > 200 µM | > 200 µM | 
CC(NC(=O)CNC(=O)C(N)CO)C(=O)NC(CCC(N)=O)C(=O)NC(CCC(=O)O)C(=O)NC(C)C(=O)NC(CCC(=O)O)C(=O)NC(CCCCN)C(=O)NC(CCC(N)=O)C(=O)NC(CCCN=C(N)N)C(=O)NC(C(=O)NC(CC(N)=O)C(=O)NC(C)C(=O)NC(Cc1cnc[nH]1)C(=O)NC(CO)C(=O)O)C(C)O (stereo not given) (H-SGAQEAEKQRTNAHS-OH; configuration not given here) | > 100 µM | > 100 µM | 
CC(C)(C)[Si](C)(C)OCC1OC(n2ccc(=O)[nH]c2=O)C(O[Si](C)(C)C(C)(C)C)/C1=C/C(N)=N\O (stereo not given) | > 200 µM | 9.12 µM | 
COc1c2cc([N+](=O)[O-])cc1CN(C(=O)C(F)(F)F)CCOCCN(C(=O)C(F)(F)F)C2 | > 200 µM | > 200 µM | 
C#C[C@@]1(O)CCCC2=CC(=O)C[C@]21C |  |  | inactive
C1=CC2C(c3cn(-c4ccccc4)nc31)C1C2C2C=CC3C(C=C2)C31 (stereo not given) | > 3.24 µM | > 3.24 µM | 
CCOC(=O)Nc1nc2ccc(Cn3cccc3)cc2[nH]1 | > 13.2 µM | 0.794 µM | 
CC1(C)OC(C[C@]2(C#N)C[C@H](CCl)OC(C)(C)O2)C[C@@H](C[C@]2(C#N)C[C@H](CCl)OC(C)(C)O2)O1 (stereo not given in full) | > 200 µM | 67.6 µM | 

SMILES | EC50 | IC50 | outcome
O=C(O)c1sc(=S)sc1C(=O)O |  |  | inactive
O=C(OCCN1CCNCC1)c1cc2ccccc2[nH]1 | > 200 µM | 26.9 µM | 
NNC(=O)c1ccncc1 | > 200 µM | > 200 µM | 
Cc1ccc([N+](=O)[O-])cc1NC(=O)Nc1onc(C)c1C | > 200 µM | 9.77 µM | 
COc1ccc([C@H]2[C@H]3COC(=O)[C@H]3C(C#N)=C3Sc4ccccc4N32)cc1 | > 200 µM | 12.9 µM | 
COc1ccc(CCN2C(=O)c3cccc4c(Br)ccc(c34)C2=O)cc1 | > 200 µM | 105 µM | 
Cc1sc(N=Nc2c(O)[nH]c3ccccc23)nc1-c1ccccc1 | > 200 µM | 43.7 µM | 
Nc1nc2ccc(CO)nc2c(=O)[nH]1 | > 200 µM | > 200 µM | 
COC1/C=C/OC2(C)Oc3c(C)c(O)c4c(O)c(c(/C=N/Nc5ncccn5)c(O)c4c3C2=O)NC(=O)C(C)=C/C=C/C(C)C(O)C(C)C(O)C(C)C(OC(C)=O)C1C (stereo not given) | > 151 µM | 9.12 µM | 
C[C@@]12[Se]c3ccccc3[C@]1(C)[Se]c1ccccc12 |  |  | inactive
CCC1(N=[N+]=[N-])C(=O)c2ccccc2N(c2ccccc2)C1=O (stereo not given) | > 200 µM | > 200 µM | 
O=c1[nH]c(=S)[nH]c2[nH]c(=S)[nH]c12 | > 200 µM | > 200 µM | 
O=C1C=CC[C@H](/C=C/C[C@@H](O)C[C@H](O)/C=C/c2ccccc2)O1 | > 200 µM | 5.37 µM | 
CCOC(=O)/C(C1=NCCN1C)=C(\O)c1ccccc1 | > 912 µM | > 912 µM | 
Cn1c(=O)[nH]c2nncnc2c1=O | > 200 µM | 31.6 µM | 
COc1ccc(N2CCCSC2=S)cc1 | > 200 µM | > 200 µM | 
Cc1c(N=Nc2ccc(Cl)cc2)c(C)n(C2OC(CO)C(O)C(O)C2O)c(=S)c1C#N (stereo not given) | > 200 µM | 34.7 µM | 
COc1ccc(N=Nc2ccc3oc(=O)c(C(=O)Nc4ccccc4C)cc3c2)cc1 | > 200 µM | 66.1 µM | 
CC(CC(=O)N(C)[C@H](C[C@@H](C)C(Cl)(Cl)Cl)c1nccs1)C(Cl)(Cl)Cl (stereo not given in full) |  |  | inactive
CC(C)OP(=O)(CN(C)/C(F)=N\C(F)(F)F)OC(C)C | > 200 µM | > 200 µM | 
O=c1oc2cccnc2n1CCN1CCN(c2ccc(Oc3ccccc3)cc2)CC1 | > 200 µM | 52.5 µM | 
O=C1c2ccccc2-c2nccc3ccnc1c23 |  |  | inactive

SMILES | EC50 | IC50 | outcome
COC(=O)C1(C(=O)OC)CC(=O)c2cc3c(cc2-c2c(cc(OC)c(OC)c2OC)C1)OCO3 | > 28.8 µM | > 28.8 µM | 
CC(C)C(OC(=O)c1cc(NC(=S)c2cccn2C)ccc1Cl)C(C)C | 0.234 µM | 18.2 µM | 
COc1ccc(N2C(=O)C3c4[nH]c5ccccc5c4C4CCC(C(C)(C)C)CC4C3C2=O)cc1OC (stereo not given) | > 2.14 µM | > 2.14 µM | 
CSc1s[s+]c(SC)c1-c1ccccc1 | 14.8 µM | 16.2 µM | 
Nc1ccccc1C(=O)/C=C/c1c(O)ccc2ccccc12 |  |  | inactive
CC(C)N(C(C)C)P(OCCC#N)OC1CC(n2cnc3c(=O)[nH]cnc32)OC1COC(=O)NCCCCCCNC(=O)OC(C)(C)c1ccc(-c2ccccc2)cc1 (stereo not given) | > 8.71 µM | > 8.71 µM | 
CCOP(=S)(N/N=C1/CCCC(C)C1)OCC (stereo not given) | > 200 µM | 102 µM | 
CC(OC(C)(C)C)[C@H](NC(=O)OC(C)(C)C)C(=O)O (stereo not given in full) | > 275 µM | > 275 µM | 
CCCC(=O)NC(Nc1ccc(F)cc1)(C(F)(F)F)C(F)(F)F |  |  | inactive
CN/N=C(/C=C/c1ccccc1)C(C)C | > 200 µM | > 200 µM | 
CCOC(=O)C(O)(NC(=O)Nc1ccc(F)cc1)C(F)(F)F (stereo not given) | > 200 µM | > 200 µM | 
O=C1CN(CCCN2CCOCC2)CC(=O)N2CCCCN12 | > 200 µM | > 200 µM | 
O=C(CCc1ccccc1)NCCc1ccc(O)c(O)c1 | > 200 µM | 14.8 µM | 
CCN(CC)CC(=O)Nc1c(C)cc(C(=O)NN)cc1C | > 200 µM | > 200 µM | 
CC(C)=CCC[C@@H](C)C1=CC(=O)C(C)=C(O)C1=O | > 2 µM | 1.02 µM | 
COc1ccc(C2=CSC3=NC(C)(C)CC(C)=NN23)cc1 | > 316 µM | 170 µM | 
CCOC(=O)c1s/c(=N\Nc2nc3ccccc3cc2C2OCCO2)n(Cc2ccccc2)c1C | > 5.5 µM | > 5.5 µM | 
CCCN1CC=C(c2cc(C(=O)OCC)[nH]c2-c2cc(C)no2)C1=O | > 200 µM | 107 µM | 
C=CC[C@]12C[C@@H](C(=O)OC)N(C(=O)OC)[C@H]1N(S(=O)(=O)c1ccccc1)c1ccccc12 | > 200 µM | 74.1 µM | 
CCCc1cc(=O)oc2c3c(c4c(c12)OC(C)(C)C=C4)O[C@@H](C)[C@H](C)C3=O | 4.9 µM | 97.7 µM | 
CC1CCCc2c1c1ccc3c(O)cccc3c1oc2=O (stereo not given) | > 7.08 µM | > 7.08 µM | 
CCOC(=O)/C(C#N)=C/c1ccccc1OC | > 112 µM | > 112 µM | 

SMILES | EC50 | IC50 | outcome
Oc1cc(Cl)c(Cl)cc1Cl |  |  | inactive
COC(=O)C1Cc2c(n(C)c3ccccc23)C(c2ccccc2)N1 (stereo not given) |  |  | inactive
Cn1ncnc1CCc1ccccc1 | > 32.4 µM | > 32.4 µM | 
OC1C[C@H](c2ccccc2)C2(C(O)c3ccccc3C2O)[C@@H](c2ccccc2)C1 (stereo not given in full) | > 200 µM | 89.1 µM | 
O=C(N/N=C/c1ccccn1)c1ccccc1[O-].O=C(N/N=C/c1ccccn1)c1ccccc1[O-].[Mn+2] | > 200 µM | 11.2 µM | 
CCCCCCCCCCCCC(SCCNC(=O)CCNC(=O)C(O)C(C)(C)COP(=O)(O)OP(=O)(O)OCC1OC(n2cnc3c(N)ncnc32)C(O)C1OP(=O)(O)O)C(=O)NCC(N)=O (stereo not given) |  |  | inactive
CCNc1nnc(-c2ccccc2Nc2ccccc2-c2nnc(NCC)s2)s1 | > 200 µM | 16.2 µM | 
CN(C)c1ccc(C(=C2C=CC(=[N+](C)C)C=C2)c2ccc(N(C)C)cc2)cc1 |  |  | inactive
Cc1cnc(/N=c2\sc(C)cn2-c2ncc(C)s2)s1 | > 200 µM | > 200 µM | 
CCCCn1cnc2c(SSc3ncnc4c3ncn4CCCC)ncnc21 | > 200 µM | 10.7 µM | 
CO/C(=N\N=C\c1ccc(OC)c(OC)c1)c1ccncc1 | > 437 µM | 295 µM | 
O=C(CC(=O)N1N=C(N2c3ccccc3Sc3ccccc32)CC1c1ccccc1)Nc1ccccc1Cl (stereo not given) | > 200 µM | > 200 µM | 
O=C1CCC(=O)N1CNc1cccc(NCN2C(=O)CCC2=O)c1 | > 39.8 µM | > 39.8 µM | 
COc1cccc(Nc2nc(NS(=O)(=O)c3cc(C)c(Cl)cc3S)n[nH]2)c1 | > 200 µM | 158 µM | 
CC(=O)O[C@H]1CC[C@@]2(C)C(=CC[C@@H]3C2CC[C@@]2(C)C3CC[C@@H]2c2ncc(C)s2)C1 (stereo not given in full) | > 60.3 µM | > 60.3 µM | 
CSCCOC(=O)C(=[N+]=[N-])c1ccc([N+](=O)[O-])cc1 |  |  | inactive
c1ccc2c3c([nH]c2c1)C1c2[nH]c4ccccc4c2CCN1CC3 | > 200 µM | 11 µM | 
CC1CCC2(CC1)NC1=C(CC(C)CC1)C1=C2CC(C)CC1 (stereo not given) | > 200 µM | 35.5 µM | 
O=S(=O)(O)c1ccc(N/N=C/c2ccccc2)cc1 | > 832 µM | 794 µM | 
